# Results: paper PMC8217170, “Phase Ib dose-escalation study of the hypoxia-modifier Myo-inositol trispyrophosphate in patients with hepatopancreatobiliary tumors” (Nature Communications, 2021)
# Assay: Plasma levels and pharmacokinetics of intravenous ITPP
smiles,measurement,setting,value
"O=P1(O)OC2C3OP(=O)(O)OP(=O)(O)OC3C3OP(=O)(O)OP(=O)(O)OC3C2OP(=O)(O)O1 (centres unmarked) [ITPP, Myo-inositol trispyrophosphate]","ITPP plasma level, Concentration","Cohort 6, Patient 18, Day 5, Hour 10",60.6 µg/mL
same,"ITPP plasma level, Concentration","Cohort 6, Patient 19, Day 1, Hour 0",0 µg/mL
same,"ITPP plasma level, Concentration","Cohort 6, Patient 19, Day 1, Hour 3",392 µg/mL
same,"ITPP plasma level, Concentration","Cohort 6, Patient 19, Day 1, Hour 6",294 µg/mL
same,"ITPP plasma level, Concentration","Cohort 6, Patient 19, Day 1, Hour 8.5",219 µg/mL
same,"ITPP plasma level, Concentration","Cohort 6, Patient 19, Day 1, Hour 9",185 µg/mL
same,"ITPP plasma level, Concentration","Cohort 6, Patient 19, Day 1, Hour 10",154 µg/mL
same,"ITPP plasma level, Concentration","Cohort 6, Patient 19, Day 5, Hour 0",0 µg/mL
same,"ITPP plasma level, Concentration","Cohort 6, Patient 19, Day 5, Hour 3",287 µg/mL
same,"ITPP plasma level, Concentration","Cohort 6, Patient 19, Day 5, Hour 6",329 µg/mL
same,"ITPP plasma level, Concentration","Cohort 6, Patient 19, Day 5, Hour 8.5",265 µg/mL
same,"ITPP plasma level, Concentration","Cohort 6, Patient 19, Day 5, Hour 9",244 µg/mL
same,"ITPP plasma level, Concentration","Cohort 6, Patient 19, Day 5, Hour 10",216 µg/mL
same,"ITPP plasma level, Concentration","Cohort 6, Patient 20, Day 1, Hour 0",0 µg/mL
same,"ITPP plasma level, Concentration","Cohort 6, Patient 20, Day 1, Hour 3",279 µg/mL
same,"ITPP plasma level, Concentration","Cohort 6, Patient 20, Day 1, Hour 6",307 µg/mL
same,"ITPP plasma level, Concentration","Cohort 6, Patient 20, Day 1, Hour 8.5",282 µg/mL
same,"ITPP plasma level, Concentration","Cohort 6, Patient 20, Day 1, Hour 9",396 µg/mL
same,"ITPP plasma level, Concentration","Cohort 6, Patient 20, Day 1, Hour 10",396 µg/mL
same,"ITPP plasma level, Concentration","Cohort 6, Patient 20, Day 5, Hour 0",0 µg/mL
same,"ITPP plasma level, Concentration","Cohort 6, Patient 20, Day 5, Hour 3",411 µg/mL
same,"ITPP plasma level, Concentration","Cohort 6, Patient 20, Day 5, Hour 6",595 µg/mL
same,"ITPP plasma level, Concentration","Cohort 6, Patient 20, Day 5, Hour 8.5",466 µg/mL
same,"ITPP plasma level, Concentration","Cohort 6, Patient 20, Day 5, Hour 9",301 µg/mL
same,"ITPP plasma level, Concentration","Cohort 6, Patient 20, Day 5, Hour 10",279 µg/mL
same,"ITPP plasma level, Concentration","Cohort 6, Patient 21, Day 1, Hour 0",0 µg/mL
same,"ITPP plasma level, Concentration","Cohort 6, Patient 21, Day 1, Hour 3",249 µg/mL
same,"ITPP plasma level, Concentration","Cohort 6, Patient 21, Day 1, Hour 6",325 µg/mL
same,"ITPP plasma level, Concentration","Cohort 6, Patient 21, Day 1, Hour 8.5",281 µg/mL
same,"ITPP plasma level, Concentration","Cohort 6, Patient 21, Day 1, Hour 9",241 µg/mL
same,"ITPP plasma level, Concentration","Cohort 6, Patient 21, Day 1, Hour 10",172 µg/mL
same,"ITPP plasma level, Concentration","Cohort 6, Patient 21, Day 5, Hour 0",0 µg/mL
same,"ITPP plasma level, Concentration","Cohort 6, Patient 21, Day 5, Hour 3",350 µg/mL
same,"ITPP plasma level, Concentration","Cohort 6, Patient 21, Day 5, Hour 6",204 µg/mL
same,"ITPP plasma level, Concentration","Cohort 6, Patient 21, Day 5, Hour 8.5",217 µg/mL
same,"ITPP plasma level, Concentration","Cohort 6, Patient 21, Day 5, Hour 9",184 µg/mL
same,"ITPP plasma level, Concentration","Cohort 6, Patient 21, Day 5, Hour 10",125 µg/mL
same,"ITPP plasma level, Concentration","Cohort 7, Patient 22, Day 1, Hour 0",0 µg/mL
same,"ITPP plasma level, Concentration","Cohort 7, Patient 22, Day 1, Hour 3",280 µg/mL
same,"ITPP plasma level, Concentration","Cohort 7, Patient 22, Day 1, Hour 6",384 µg/mL
same,"ITPP plasma level, Concentration","Cohort 7, Patient 22, Day 1, Hour 8.5",281 µg/mL
same,"ITPP plasma level, Concentration","Cohort 7, Patient 22, Day 1, Hour 9",215 µg/mL
same,"ITPP plasma level, Concentration","Cohort 7, Patient 22, Day 1, Hour 10",152 µg/mL
same,"ITPP plasma level, Concentration","Cohort 7, Patient 22, Day 5, Hour 0",0 µg/mL
same,"ITPP plasma level, Concentration","Cohort 7, Patient 22, Day 5, Hour 3",257 µg/mL
same,"ITPP plasma level, Concentration","Cohort 7, Patient 22, Day 5, Hour 6",351 µg/mL
same,"ITPP plasma level, Concentration","Cohort 7, Patient 22, Day 5, Hour 8.5",319 µg/mL
same,"ITPP plasma level, Concentration","Cohort 7, Patient 22, Day 5, Hour 9",302 µg/mL
same,"ITPP plasma level, Concentration","Cohort 7, Patient 22, Day 5, Hour 10",203 µg/mL
same,"ITPP plasma level, Concentration","Cohort 7, Patient 23, Day 1, Hour 0",0 µg/mL
same,"ITPP plasma level, Concentration","Cohort 7, Patient 23, Day 1, Hour 3",286 µg/mL
same,"ITPP plasma level, Concentration","Cohort 7, Patient 23, Day 1, Hour 6",329 µg/mL
same,"ITPP plasma level, Concentration","Cohort 7, Patient 23, Day 1, Hour 8.5",316 µg/mL
same,"ITPP plasma level, Concentration","Cohort 7, Patient 23, Day 1, Hour 9",178 µg/mL
same,"ITPP plasma level, Concentration","Cohort 7, Patient 23, Day 1, Hour 10",119 µg/mL
same,"ITPP plasma level, Concentration","Cohort 7, Patient 23, Day 5, Hour 0",0 µg/mL
same,"ITPP plasma level, Concentration","Cohort 7, Patient 23, Day 5, Hour 3",282 µg/mL
same,"ITPP plasma level, Concentration","Cohort 7, Patient 23, Day 5, Hour 6",478 µg/mL
same,"ITPP plasma level, Concentration","Cohort 7, Patient 23, Day 5, Hour 8.5",418 µg/mL
same,"ITPP plasma level, Concentration","Cohort 7, Patient 23, Day 5, Hour 9",188 µg/mL
same,"ITPP plasma level, Concentration","Cohort 7, Patient 23, Day 5, Hour 10",185 µg/mL
same,"ITPP plasma level, Concentration","Cohort 7, Patient 24, Day 1, Hour 0",0 µg/mL
same,"ITPP plasma level, Concentration","Cohort 7, Patient 24, Day 1, Hour 3",278 µg/mL
same,"ITPP plasma level, Concentration","Cohort 7, Patient 24, Day 1, Hour 6",230 µg/mL
same,"ITPP plasma level, Concentration","Cohort 7, Patient 24, Day 1, Hour 8.5",226 µg/mL
same,"ITPP plasma level, Concentration","Cohort 7, Patient 24, Day 1, Hour 9",152 µg/mL
same,"ITPP plasma level, Concentration","Cohort 7, Patient 24, Day 1, Hour 10",103 µg/mL
same,"ITPP plasma level, Concentration","Cohort 7, Patient 24, Day 2, Hour 0",0 µg/mL
same,"ITPP plasma level, Concentration","Cohort 7, Patient 24, Day 2, Hour 9",143 µg/mL
same,"ITPP plasma level, Concentration","Cohort 7, Patient 24, Day 3, Hour 0",0 µg/mL
same,"ITPP plasma level, Concentration","Cohort 7, Patient 24, Day 3, Hour 9",237 µg/mL
same,"ITPP plasma level, Concentration","Cohort 7, Patient 24, Day 4, Hour 0",0 µg/mL
same,"ITPP plasma level, Concentration","Cohort 7, Patient 24, Day 4, Hour 9",199 µg/mL
same,"ITPP plasma level, Concentration","Cohort 7, Patient 24, Day 5, Hour 0",0 µg/mL
same,"ITPP plasma level, Concentration","Cohort 7, Patient 24, Day 5, Hour 3",299 µg/mL
same,"ITPP plasma level, Concentration","Cohort 7, Patient 24, Day 5, Hour 6",358 µg/mL
same,"ITPP plasma level, Concentration","Cohort 7, Patient 24, Day 5, Hour 8.5",245 µg/mL
same,"ITPP plasma level, Concentration","Cohort 7, Patient 24, Day 5, Hour 9",200 µg/mL
same,"ITPP plasma level, Concentration","Cohort 7, Patient 24, Day 5, Hour 10",141 µg/mL
same,"ITPP plasma level, Concentration","Cohort 7, Patient 24, Day 6, Hour 0",0 µg/mL
same,"ITPP plasma level, Concentration","Cohort 7, Patient 24, Day 6, Hour 9",200 µg/mL
same,"ITPP plasma level, Concentration","Cohort 7, Patient 24, Day 7, Hour 0",0 µg/mL
same,"ITPP plasma level, Concentration","Cohort 7, Patient 24, Day 7, Hour 9",208 µg/mL
same,"ITPP plasma level, Concentration","Cohort 7, Patient 24, Day 8, Hour 0",0 µg/mL
same,"ITPP plasma level, Concentration","Cohort 7, Patient 24, Day 8, Hour 9",181 µg/mL
same,"ITPP plasma level, Concentration","Cohort 7, Patient 24, Day 9, Hour 0",0 µg/mL
same,"ITPP plasma level, Concentration","Cohort 7, Patient 24, Day 9, Hour 3",247 µg/mL
same,"ITPP plasma level, Concentration","Cohort 7, Patient 24, Day 9, Hour 6",345 µg/mL
same,"ITPP plasma level, Concentration","Cohort 7, Patient 24, Day 9, Hour 8.5",217 µg/mL
same,"ITPP plasma level, Concentration","Cohort 7, Patient 24, Day 9, Hour 9",199 µg/mL
same,"ITPP plasma level, Concentration","Cohort 7, Patient 24, Day 9, Hour 10",143 µg/mL
same,"ITPP plasma level, Concentration","Cohort 8, Patient 25, Day 1, Hour 0",0 µg/mL
same,"ITPP plasma level, Concentration","Cohort 8, Patient 25, Day 1, Hour 3",388 µg/mL
same,"ITPP plasma level, Concentration","Cohort 8, Patient 25, Day 1, Hour 6",497 µg/mL
same,"ITPP plasma level, Concentration","Cohort 8, Patient 25, Day 1, Hour 8.5",505 µg/mL
same,"ITPP plasma level, Concentration","Cohort 8, Patient 25, Day 1, Hour 9",317 µg/mL
same,"ITPP plasma level, Concentration","Cohort 8, Patient 25, Day 1, Hour 10",194 µg/mL
same,"ITPP plasma level, Concentration","Cohort 8, Patient 25, Day 5, Hour 0",0 µg/mL
same,"ITPP plasma level, Concentration","Cohort 8, Patient 25, Day 5, Hour 3",354 µg/mL
same,"ITPP plasma level, Concentration","Cohort 8, Patient 25, Day 5, Hour 6",495 µg/mL
same,AUC,"cohort 1, 1866 mg/m2",350.7 µg·h/mL
same,AUMC,"cohort 1, 1866 mg/m2",1994.7 h2*mg/L
same,CL,"cohort 1, 1866 mg/m2",4.8 L/h
same,Clast,"cohort 1, 1866 mg/m2",19200 ng/mL
same,Cmax,"cohort 1, 1866 mg/m2",47200 ng/mL
same,Cmin,"cohort 1, 1866 mg/m2",0 ng/mL
same,Elimination rate λz,"cohort 1, 1866 mg/m2",0.5 h⁻¹
same,Half life/T0.5,"cohort 1, 1866 mg/m2",1.3 h
same,MRT,"cohort 1, 1866 mg/m2",1.7 h
same,Tlast,"cohort 1, 1866 mg/m2",10.0 h
